Laboratory results reported in patent publication US11072588B2, “Barbituric acid derivatives comprising cationic and lipophilic groups” (UNIVERSITETET I TROMSØ—NORGES ARKTISKE UNIVERSITET, priority 2017, dated 2021).
Converted amounts (≈) assume the structure as drawn.

Legend:
P. aeruginosa K34-73 = test: MIC, multi-resistant clinical isolate; format: cell-based, Pseudomonas aeruginosa; details: for MIC: Pseudomonas aeruginosa, K3473, read-out: Antimicrobial activity (MIC); for selectivity index (EC50/MIC): RBC EC50 / MIC, P. aeruginosa K34-73
Method: (§1) Working solutions of the test derivatives were prepared with up to 100% DMSO and stored at −20° C. If necessary, the solutions were heated to 40-80° C. before testing to facilitate complete dissolution. Double-distilled water was used in all dilutions prepared. […] A microdilution susceptibility test was used for MIC determination according to Clinical and Laboratory Standards Institute, “Methods for Dilution Antimicrobial Sisceptibility Tests for Bacteria That Graw Aerobically”, Approved Standard M07-A9, edition 2012, with modifications as described by Igumnova et al (Bioorg Med Chem, 2016, 24 (22), 5884-5894).
(§2) Briefly, the bacterial inoculum was adjusted to approximately 2.5-3×10^4 cells/mL in Mueller-Hinton broth (MHB, Difco Laboratories, USA), and incubated in a ratio of 1:1 with test derivatives in polystyrene 96-well flat-bottom microplates (NUNC, Roskilde, Denmark). Positive growth control (without test derivatives) and negative control (without bacteria) were included. The reference antibiotic was oxytetracycline hydrochloride (Sigma Aldrich, Saint Louis, Mo., USA). The microplates were incubated in an EnVision microplate reader (Perkin-Elmer, Turku, Finland) placed in an incubator set to 35° C. for 48 h. The MIC value was defined as the lowest concentration of derivative resulting in no bacterial growth as determined by OD600 measurement. All derivatives were tested in three parallels.
(§3) The MIC was determined as explained above with some exceptions; working solutions of test derivatives were prepared from concentrated DMSO stocks stored at room temperature, the density of the bacterial inoculum was increased 40× to 1-1.2×10^6 cells/mL, enterococci were incubated in Brain Heart Infusion broth (BHIB, Difco Laboratories, USA), the microplates were incubated for 24 h, and the derivatives were tested in four parallels.

P. aeruginosa K44-24 = test: MIC, multi-resistant clinical isolate; format: cell-based, Pseudomonas aeruginosa; details: for MIC: Pseudomonas aeruginosa, K4424, read-out: Antimicrobial activity (MIC); for selectivity index (EC50/MIC): RBC EC50 / MIC
Method: as §1, §2, §3

P. aeruginosa 50692520 = test: MIC, multi-resistant clinical isolate; format: cell-based, Pseudomonas aeruginosa; details: for MIC: Pseudomonas aeruginosa, read-out: Antimicrobial activity (MIC); for selectivity index (EC50/MIC): RBC EC50 / MIC
Method: as §1, §2, §3

E. coli 50857972 = test: MIC, multi-resistant clinical isolate; format: cell-based, Escherichia coli; details: for MIC: Escherichia coli, read-out: Antimicrobial activity (MIC); for selectivity index (EC50/MIC): RBC EC50 / MIC
Method: as §1, §2, §3

E. coli 50676002 = test: MIC, multi-resistant clinical isolate; format: cell-based, Escherichia coli; details: for MIC: Escherichia coli, 50676002, read-out: Antimicrobial activity (MIC); for selectivity index (EC50/MIC): RBC EC50 / MIC, E. coli 50676002
Method: as §1, §2, §3

E. coli 50639799 = test: MIC, multi-resistant clinical isolate; format: cell-based, Escherichia coli; details: for MIC: Escherichia coli, read-out: Antimicrobial activity (MIC); for selectivity index (EC50/MIC): RBC EC50 / MIC
Method: as §1, §2, §3

E. coli 50739822 = test: MIC, multi-resistant clinical isolate; format: cell-based, Escherichia coli; details: for MIC: Escherichia coli, read-out: Antimicrobial activity (MIC); for selectivity index (EC50/MIC): RBC EC50 / MIC
Method: as §1, §2, §3

E. coli 50579417 = test: MIC, multi-resistant clinical isolate; format: cell-based, Escherichia coli; details: for MIC: Escherichia coli, read-out: Antimicrobial activity (MIC); for selectivity index (EC50/MIC): RBC EC50 / MIC
Method: as §1, §2, §3

[1] = tested on: panel of 30 multi-resistant clinical isolates of Gram-positive and Gram-negative bacteria; test: MIC screening, ranges over the panel of clinical isolates; format: cell-based; details: read-out: MIC values against S. aurues, E. faecium and E. coli
Method: as §1, §2, §3

S. epidermidis = test: Anti-biofilm activity (inhibition of biofilm formation); format: cell-based; details: Staphylococcus epidermidis, read-out: Anti-biofilm IC50
E. faecium K36-18 = test: MIC, multi-resistant clinical isolate; format: cell-based, Enterococcus faecium; details: for MIC: Enterococcus faecium, K3618, read-out: Antimicrobial activity (MIC); for selectivity index (EC50/MIC): RBC EC50 / MIC, E. faecium K36-18
Method: as §1, §2, §3

E. faecium 50758899 = test: MIC, multi-resistant clinical isolate; format: cell-based, Enterococcus faecium; details: for MIC: Enterococcus faecium, read-out: Antimicrobial activity (MIC); for selectivity index (EC50/MIC): RBC EC50 / MIC
Method: as §1, §2, §3

E. faecium 50673722 = test: MIC, multi-resistant clinical isolate; format: cell-based, Enterococcus faecium; details: for MIC: Enterococcus faecium, read-out: Antimicrobial activity (MIC); for selectivity index (EC50/MIC): RBC EC50 / MIC
Method: as §1, §2, §3

E. faecium 50901530 = test: MIC, multi-resistant clinical isolate; format: cell-based, Enterococcus faecium; details: for MIC: Enterococcus faecium, read-out: Antimicrobial activity (MIC); for selectivity index (EC50/MIC): RBC EC50 / MIC
Method: as §1, §2, §3

[2] = tested on: Escherichia coli ATCC 25922; test: MIC assay, antibiotic susceptible reference strain; format: cell-based; details: Escherichia coli, ATCC25922, read-out: Antimicrobial activity (MIC) E. c
Method: as §1, §2

[3] = tested on: Staphylococcus aureus ATCC 9144; test: MIC assay, antibiotic susceptible reference strain; format: cell-based; details: Staphylococcus aureus, ATCC9144, read-out: Antimicrobial activity (MIC) S. a
Method: as §1, §2

[4] = tested on: Pseudomonas aeruginosa PA01, DSM 19880 (ATCC 15692); test: MIC assay, antibiotic susceptible reference strain; format: cell-based; details: Pseudomonas aeruginosa, read-out: Antimicrobial activity (MIC) P. a
Method: as §1, §2

[5] = tested on: Corynebacterium glutamicum ATCC 13032; test: MIC assay, antibiotic susceptible reference strain; format: cell-based; details: Corynebacterium glutamicum, ATCC13032, read-out: Antimicrobial activity (MIC) C. g
Method: as §1, §2

S. aureus N315 = test: MIC, multi-resistant clinical isolate; format: cell-based, Staphylococcus aureus; details: for selectivity index (EC50/MIC): RBC EC50 / MIC, S. aureus N315; for MIC: Staphylococcus aureus, N315, read-out: Antimicrobial activity (MIC)
Method: as §1, §2, §3

S. aureus strain WIS = test: MIC, multi-resistant clinical isolate; format: cell-based, Staphylococcus aureus; details: for selectivity index (EC50/MIC): RBC EC50 / MIC, S. aureus strain WIS; for MIC: Staphylococcus aureus, read-out: Antimicrobial activity (MIC)
Method: as §1, §2, §3

S. aureus IHT 99040 = test: MIC, multi-resistant clinical isolate; format: cell-based, Staphylococcus aureus; details: for selectivity index (EC50/MIC): RBC EC50 / MIC; for MIC: Staphylococcus aureus, IHT99040, read-out: Antimicrobial activity (MIC)
Method: as §1, §2, §3

S. aureus NCTC 10442 = test: MIC, multi-resistant clinical isolate; format: cell-based, Staphylococcus aureus; details: for selectivity index (EC50/MIC): RBC EC50 / MIC, S. aureus NCTC 10442; for MIC: Staphylococcus aureus, NCTC10442, read-out: Antimicrobial activity (MIC)
Method: as §1, §2, §3

S. aureus strain 85/2082 = test: MIC, multi-resistant clinical isolate; format: cell-based, Staphylococcus aureus; details: for selectivity index (EC50/MIC): RBC EC50 / MIC, S. aureus strain 85/2082; for MIC: Staphylococcus aureus, 85/2082, read-out: Antimicrobial activity (MIC)
Method: as §1, §2, §3

E. faecium TUH50-22 = test: MIC, multi-resistant clinical isolate; format: cell-based, Enterococcus faecium
Method: as §1, §2, §3

Row | Compound | MIC (P. aeruginosa K34-73) | selectivity index (EC50/MIC) (P. aeruginosa K34-73) | MIC (P. aeruginosa K44-24) | selectivity index (EC50/MIC) (P. aeruginosa K44-24) | MIC (P. aeruginosa 50692520) | selectivity index (EC50/MIC) (P. aeruginosa 50692520) | MIC (E. coli 50857972) | selectivity index (EC50/MIC) (E. coli 50857972) | MIC (E. coli 50676002) | selectivity index (EC50/MIC) (E. coli 50676002) | MIC (E. coli 50639799) | selectivity index (EC50/MIC) (E. coli 50639799) | MIC (E. coli 50739822) | selectivity index (EC50/MIC) (E. coli 50739822) | MIC (E. coli 50579417) | selectivity index (EC50/MIC) (E. coli 50579417) | MIC (E. faecium K36-18) | selectivity index (EC50/MIC) (E. faecium K36-18) | MIC (E. faecium 50758899) | selectivity index (EC50/MIC) (E. faecium 50758899) | also measured
1 | NCCCCN1C(=O)N(CCCCN)C(=O)C(Cc2cc(Br)cc(Br)c2)(Cc2cc(Br)cc(Br)c2)C1=O [7(ii)] | 16 µg/mL (≈ 20.9 µM) | (5) | 16 µg/mL (≈ 20.9 µM) | (5) | 16 µg/mL (≈ 20.9 µM) | (5) | 8 µg/mL (≈ 10.4 µM) | (10) | 8 µg/mL (≈ 10.4 µM) | (10) | 8 µg/mL (≈ 10.4 µM) | (10) | 8 µg/mL (≈ 10.4 µM) | (10) | 8 µg/mL (≈ 10.4 µM) | (10) | 8 µg/mL (≈ 10.4 µM) | (10) | 4 µg/mL (≈ 5.22 µM) | (21) | MIC [1]: 4 to 8 µg/mL (≈ 5.22 to 10.4 µM); IC50 (S. epidermidis): 6 µg/mL (≈ 7.83 µM); MIC (E. faecium 50673722): 4 µg/mL (≈ 5.22 µM); selectivity index (EC50/MIC) (E. faecium 50673722): (21); MIC (E. faecium 50901530): 4 µg/mL (≈ 5.22 µM); selectivity index (EC50/MIC) (E. faecium 50901530): (21); MIC [2]: 4 µg/mL (≈ 5.22 µM); MIC [3]: 4 µg/mL (≈ 5.22 µM); MIC [4]: 8 µg/mL (≈ 10.4 µM); MIC [5]: 1 µg/mL (≈ 1.31 µM); selectivity index (EC50/MIC) (S. aureus N315): (21); MIC (S. aureus N315): 4 µg/mL (≈ 5.22 µM); selectivity index (EC50/MIC) (S. aureus strain WIS): (21); MIC (S. aureus strain WIS): 4 µg/mL (≈ 5.22 µM); selectivity index (EC50/MIC) (S. aureus IHT 99040): (21); MIC (S. aureus IHT 99040): 4 µg/mL (≈ 5.22 µM); selectivity index (EC50/MIC) (S. aureus NCTC 10442): (21); MIC (S. aureus NCTC 10442): 4 µg/mL (≈ 5.22 µM); selectivity index (EC50/MIC) (S. aureus strain 85/2082): (21); MIC (S. aureus strain 85/2082): 4 µg/mL (≈ 5.22 µM)
2 | NCCCCN1C(=O)N(CCCCN)C(=O)C(Cc2cc(C(F)(F)F)cc(C(F)(F)F)c2)(Cc2cc(C(F)(F)F)cc(C(F)(F)F)c2)C1=O [7(vi)] | 32 µg/mL (≈ 44.3 µM) | (6) | 32 µg/mL (≈ 44.3 µM) | (6) | 32 µg/mL (≈ 44.3 µM) | (6) | 8 µg/mL (≈ 11.1 µM) | (23) | 16 µg/mL (≈ 22.1 µM) | (11) | 16 µg/mL (≈ 22.1 µM) | (11) | 16 µg/mL (≈ 22.1 µM) | (11) | 16 µg/mL (≈ 22.1 µM) | (11) | 16 µg/mL (≈ 22.1 µM) | (11) | 16 µg/mL (≈ 22.1 µM) | (11) | MIC (E. faecium 50673722): 8 µg/mL (≈ 11.1 µM); selectivity index (EC50/MIC) (E. faecium 50673722): (23); MIC (E. faecium 50901530): 8 µg/mL (≈ 11.1 µM); selectivity index (EC50/MIC) (E. faecium 50901530): (23); MIC (E. faecium TUH50-22; Enterococcus faecium, TUH5022, read-out: Antimicrobial activity (MIC)): 8 µg/mL (≈ 11.1 µM); selectivity index (EC50/MIC) (E. faecium TUH50-22; RBC EC50 / MIC): (23); MIC [2]: 8 µg/mL (≈ 11.1 µM); MIC [3]: 8 µg/mL (≈ 11.1 µM); MIC [4]: 8 µg/mL (≈ 11.1 µM); MIC [5]: 1 µg/mL (≈ 1.38 µM); selectivity index (EC50/MIC) (S. aureus N315): (11); MIC (S. aureus N315): 16 µg/mL (≈ 22.1 µM); selectivity index (EC50/MIC) (S. aureus strain WIS): (11); MIC (S. aureus strain WIS): 16 µg/mL (≈ 22.1 µM); selectivity index (EC50/MIC) (S. aureus IHT 99040): (11); MIC (S. aureus IHT 99040): 16 µg/mL (≈ 22.1 µM); selectivity index (EC50/MIC) (S. aureus NCTC 10442): (11); MIC (S. aureus NCTC 10442): 16 µg/mL (≈ 22.1 µM); selectivity index (EC50/MIC) (S. aureus strain 85/2082): (11); MIC (S. aureus strain 85/2082): 16 µg/mL (≈ 22.1 µM)
